This is an account of results in US12503506B2, “Dual drug antibody-drug conjugates” (priority 2019, dated 2025).

As usually defined, the pIC50 is the negative decadic logarithm of the IC50, by convention in mol/L.

pIC50: −log10 of the molar value.

Data set [1] has as its system multidrug-resistant Namalwa cell line (MDR+ve). The data set is described as follows: MTT cytotoxicity assay in multidrug-resistant Namalwa cells. The class given is cell-based. Particulars: 72 h. The protocol:
(§1) Namalwa 21 nM VCR (multidrug-resistant cells by exposure to vincristine (21 nM), and Namalwa wild type (ATCC CRL-1432) cells were cultured in ATCC-formulated RPMI-1640 medium with L-glutamine (2 mM), sodium bicarbonate (1.5 g L-1), glucose (4.5 g L^−1), HEPES (10 mM) and sodium pyruvate (1.0 mM). The media was supplemented with penicillin (100 U mL^−1) and streptomycin (100 μg mL^−1, Mediatech) and fetal bovine serum (FBS, 10%, BenchMark). Cells were maintained in a humid 5% CO2 atmosphere at 37° C. and subcultured every 2-3 days.
(§2) Cytotoxicity of PCTX and compounds 2, 2& 10, 15 and 17 was determined using the MTT assay. On the day of exposure, exponentially growing cells were plated at 25,000 cells/well in 160 μL in 96-well tissue culture plates (Nunc). Cells were then incubated with medium (control) or compounds (20 μL, 10× in cell culture medium) at the indicated final concentrations (0.1-1000 nM). At 68 h, MTT reagent (5 mg mL^−1 in PBS, 20 μL/well) was added to each well. The plate was further incubated at 37° C. At 72 h the plate was centrifuged at 1400 rpm for 10 min at 4° C. and supernatants were carefully removed. DMSO (100 μL/well) was added to dissolve the water-insoluble formazan salt. The absorbance was measured at 545 nm using a microplate reader (BMG Labtech). Data points were collected in triplicate and expressed as normalized values for untreated control cells (100%). […]
Background: Tetrazolium dyes change colour on reduction, which living cells bring about.

Data set [2] has as its system Namalwa wild type cells. The data set is described as follows: MTT cytotoxicity assay in Namalwa wild type cells. To be noted: 72 h incubation, read-out: IC50 (cytotoxicity, cell viability by MTT). The class given is cell-based. The protocol: as §1, §2

Consider `CC(=O)O[C@H]1C(=O)[C@]2(C)[C@@H](O)CC3OC[C@@]3(OC(C)=O)[C@H]2[C@H](OC(=O)c2ccccc2)[C@]2(O)C[C@H](OC(=O)[C@H](OC(=O)CCC(=O)NCCOCCOCCNC(=O)OCC3C4CCC#CCCC43)[C@@H](NC(=O)c3ccccc3)c3ccccc3)C(C)=C1C2(C)C` (stereo partly drawn) [Compound 2, (4S,4aS,6R,9S,11S,12S,12aR,12bS)-9-(((19R)-19-((S)-benzamido(phenyl)methyl)-1-(bicyclo[6.1.0]non-4-yn-9-yl)-3,14,17-trioxo-2,7,10,18-tetraoxa-4,13-diazaicosan-20-oyl)oxy)-12-(benzoyloxy)-4,11-dihydroxy-4a,8,13,13-tetramethyl-5-oxo-3,4,4a,5,6,9,10,11,12,12a-decahydro-1H-7,11-methanocyclodeca[3,4]benzo[1,2-b]oxete-6,12b(2aH)-diyl diacetate], for which the “activity (cytotoxicity) in MDR+ve cell line” value in data set [1] is recorded as “no appreciable activity”. Moreover, in data set [2], the pIC50 was 7.59.

Turning to `CC(=O)O[C@H]1C(=O)[C@@]2(C)[C@H]([C@H](OC(=O)c3ccccc3)[C@]3(O)C[C@H](OC(=O)[C@H](O)[C@@H](NC(=O)c4ccccc4)c4ccccc4)C(C)=C1C3(C)C)[C@]1(OC(C)=O)CO[C@@H]1C[C@@H]2O` [PCTX, Paclitaxel, reference compound], in data set [2], the negative logarithm of the IC50 (pIC50) is 8.70.
